Test results from patent US11773421B2, “Method for producing fructose-6-phosphate from dihydroxy acetone phosphate and glyceraldehyde-3-phosphate” (Global Bioenergies, priority 2018, dated 2023).

Tests used:
[1] = molecular target: fructose bisphosphatase (Escherichia coli, UniProt P0A993); assay: Impact of AMP concentration on fructose bisphosphatase activity; format: biochemical; conditions: AMP several concentrations; 1 mM F1,6bisP, 0.2 mg/ml FBP enzyme, 30° C., NADPH formation at 340 nm; FIG. 1
Chain of fructose bisphosphatase (P0A993 whole entry): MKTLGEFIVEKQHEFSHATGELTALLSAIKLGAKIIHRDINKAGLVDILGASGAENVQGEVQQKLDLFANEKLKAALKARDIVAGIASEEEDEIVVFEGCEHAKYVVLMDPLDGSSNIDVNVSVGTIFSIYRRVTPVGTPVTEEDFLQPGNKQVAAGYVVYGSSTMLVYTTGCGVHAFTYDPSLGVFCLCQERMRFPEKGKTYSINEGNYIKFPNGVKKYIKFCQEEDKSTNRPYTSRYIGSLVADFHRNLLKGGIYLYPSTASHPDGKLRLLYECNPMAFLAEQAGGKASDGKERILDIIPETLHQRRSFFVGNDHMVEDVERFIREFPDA
Description: (§1) A series of tests was conducted in order to determine if AMP has an inhibitory effect on the enzymatic activity of fructose-6-phosphate aldolase and/or fructose bisphosphatase. […] Chem Cat Chem, Wiley, 7:1871-1879 (2015).

[2] = molecular target: T1, FsaA A129S (Escherichia coli, UniProt P78055, A129S); assay: Impact of AMP concentration on fructose-6-phosphate aldolase activity of FsaA A129S; format: biochemical, E. coli; conditions: AMP several concentrations; 200 mM DHA, 3 mM D,L-G3P, 0.4 mg/ml FsaA A129S, 30° C., NADPH formation at 340 nm; FIG. 2
T1 construct: made in house; host or cells: E. coli BL21(DE3), ASKA collection plasmid
T1 sequence (P78055 whole entry A129S): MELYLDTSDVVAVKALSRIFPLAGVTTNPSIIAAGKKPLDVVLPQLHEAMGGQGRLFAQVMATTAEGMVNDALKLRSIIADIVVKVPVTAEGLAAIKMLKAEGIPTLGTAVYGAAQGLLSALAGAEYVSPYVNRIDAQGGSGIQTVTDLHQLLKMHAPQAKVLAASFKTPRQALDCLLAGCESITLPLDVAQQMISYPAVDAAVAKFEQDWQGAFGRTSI
Description: as §1

For `Nc1ncnc2c1ncn2[C@@H]1O[C@H](COP(=O)(O)O)[C@@H](O)[C@H]1O` [AMP], the “impact of AMP on fructose bisphosphatase activity” value [1] was “strong inhibitory impact” and the “inhibitory effect of AMP on fructose-6-phosphate aldolase activity” value [2] was “No inhibitory effect”.
